This is an account of results in patent publication US20050090505A1, “Methods of reducing risk of infection from pathogens” (priority 2003, published 2005).

The target of series [1] is T1, airway epithelial sodium currents (sodium channel) (UniProt A0A8I3MKE6+A0A8I3Q679+Q95165).
T1 sequence (A0A8I3MKE6 1-646): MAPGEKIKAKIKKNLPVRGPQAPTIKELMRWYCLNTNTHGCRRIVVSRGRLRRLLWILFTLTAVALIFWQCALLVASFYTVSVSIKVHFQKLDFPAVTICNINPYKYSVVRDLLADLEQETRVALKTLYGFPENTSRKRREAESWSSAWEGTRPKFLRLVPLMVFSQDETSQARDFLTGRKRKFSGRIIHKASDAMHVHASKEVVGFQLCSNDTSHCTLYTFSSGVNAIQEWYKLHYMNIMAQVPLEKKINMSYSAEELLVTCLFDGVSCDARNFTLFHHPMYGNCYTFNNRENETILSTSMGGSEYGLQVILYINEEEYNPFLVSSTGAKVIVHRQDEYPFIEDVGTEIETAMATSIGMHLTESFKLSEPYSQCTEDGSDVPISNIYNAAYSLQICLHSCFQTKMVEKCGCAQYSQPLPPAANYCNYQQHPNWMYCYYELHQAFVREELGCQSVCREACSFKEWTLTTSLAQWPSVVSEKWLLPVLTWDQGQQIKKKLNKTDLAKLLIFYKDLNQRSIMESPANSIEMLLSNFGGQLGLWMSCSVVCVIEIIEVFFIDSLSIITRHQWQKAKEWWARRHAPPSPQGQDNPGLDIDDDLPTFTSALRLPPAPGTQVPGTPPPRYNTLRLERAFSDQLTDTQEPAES
T1 sequence (A0A8I3Q679 1-649): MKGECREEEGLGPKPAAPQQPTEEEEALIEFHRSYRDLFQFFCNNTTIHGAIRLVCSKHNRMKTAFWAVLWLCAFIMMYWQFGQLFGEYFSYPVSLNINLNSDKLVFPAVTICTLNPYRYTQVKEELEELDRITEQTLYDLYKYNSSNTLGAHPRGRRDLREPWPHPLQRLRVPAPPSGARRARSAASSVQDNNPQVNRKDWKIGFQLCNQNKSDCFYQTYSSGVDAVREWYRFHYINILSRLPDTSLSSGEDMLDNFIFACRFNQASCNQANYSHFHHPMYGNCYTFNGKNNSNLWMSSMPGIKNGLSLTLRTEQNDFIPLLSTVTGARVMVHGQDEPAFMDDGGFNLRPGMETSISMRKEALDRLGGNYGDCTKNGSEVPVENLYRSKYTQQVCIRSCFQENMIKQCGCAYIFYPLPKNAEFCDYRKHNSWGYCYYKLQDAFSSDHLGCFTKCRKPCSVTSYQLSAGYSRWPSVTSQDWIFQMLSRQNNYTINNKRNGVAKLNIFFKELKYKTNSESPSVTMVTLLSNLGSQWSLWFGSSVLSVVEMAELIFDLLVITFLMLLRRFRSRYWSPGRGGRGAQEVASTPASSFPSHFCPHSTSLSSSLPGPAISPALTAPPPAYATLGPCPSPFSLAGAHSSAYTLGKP
T1 sequence (Q95165 1-641): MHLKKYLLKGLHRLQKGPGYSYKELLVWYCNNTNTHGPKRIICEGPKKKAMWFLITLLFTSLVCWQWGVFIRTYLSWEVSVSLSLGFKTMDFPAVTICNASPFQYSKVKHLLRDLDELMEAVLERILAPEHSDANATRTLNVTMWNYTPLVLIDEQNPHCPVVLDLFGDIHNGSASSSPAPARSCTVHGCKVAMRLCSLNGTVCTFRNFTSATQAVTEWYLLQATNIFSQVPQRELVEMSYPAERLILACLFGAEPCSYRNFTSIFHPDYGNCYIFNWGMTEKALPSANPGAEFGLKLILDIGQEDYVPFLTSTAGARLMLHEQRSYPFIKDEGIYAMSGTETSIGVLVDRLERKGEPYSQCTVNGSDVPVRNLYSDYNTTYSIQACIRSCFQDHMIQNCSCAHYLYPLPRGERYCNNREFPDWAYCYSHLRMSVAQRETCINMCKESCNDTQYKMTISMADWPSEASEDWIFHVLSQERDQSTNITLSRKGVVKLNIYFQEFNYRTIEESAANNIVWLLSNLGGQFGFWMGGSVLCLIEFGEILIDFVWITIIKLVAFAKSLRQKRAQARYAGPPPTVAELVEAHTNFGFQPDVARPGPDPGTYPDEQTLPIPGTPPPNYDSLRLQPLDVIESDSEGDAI
As to the kind of experiment: Sodium channel blocking activity: inhibition of short circuit current (ISC) in airway epithelial monolayers mounted in Ussing chambers. Format: cell-based, human, dog, sheep or rodent. Particulars: for Fold Amiloride** (PSA 4022 = 100): relative potency for PSA 4022 = 100 using EC50 from PSA 4022 in same run; for EC50: Selected Alaphatic Pyrazinoylguanidines (Formula II), mean ± spread, read-out: EC50. The method, boiled down: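 Human, dog, sheep or rodent airway epithelial cells were grown at air-liquid interface and mounted in Ussing chambers bathed in Krebs Bicarbonate Ringer. Drug was added lumenally in half-log cumulative doses from 1×10^−11 M to 3×10^−5 M, with inhibition of ISC recorded for IC50. Reversibility is percent return to baseline current after three drug-free washes.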

The compound `CC(C)(C)OC(=O)NCCCCCCCCCNC(=N)NC(=O)c1nc(Cl)c(N)nc1N` [compound 19484, {9-[N′-(3,5-diamino-6-chloropyrazine-2-carbonyl)guanidino]nonyl}-carbamic acid tert-butyl ester] came in with a melting point of 187 to 189 °C. Also, the “Fold Amiloride** (PSA 4022 = 100)” value in series [1] (Alaphatic Pyrazinoylguanidines) was found to be 12. Besides, the EC50 in series [1] stood at 66 nM.

In the case of `N=C(NCCCCc1ccc(OCCCc2ncc[nH]2)cc1)NC(=O)c1nc(Cl)c(N)nc1N` [compound 23022, N-(3,5-diamino-6-chloropyrazine-2-carbonyl)-N′-(4-{4-[3-(1H-imidazol-2-yl)propoxy]phenyl}butyl)guanidine], the melting point was 123 to 126 °C (dec.). Besides, the “Fold Amiloride** (PSA 4022 = 100)” value in series [1] (Capped Pyrazinoylguanidines) was found to be 79 ± 15.

As for `CC(C)(C)OC(=O)NCCCCCCCCCCCCNC(=N)NC(=O)c1nc(Cl)c(N)nc1N` [compound 23776, {12-[N′-(3,5-diamino-6-chloropyrazine-2-carbonyl)guanidino]dodecyl}-carbamic acid tert-butyl ester], the melting point was 154 to 156 °C. For the same compound, the “Fold Amiloride** (PSA 4022 = 100)” value in series [1] (Alaphatic Pyrazinoylguanidines) is recorded as 7. In addition, the concentration for a half-maximal effect (EC50) in series [1] is 75 nM.
